According to ChEMBL document CHEMBL1201862, “PubChem BioAssay data set” (2004):
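Exposure lasted 48 hours, with cells grown in 96-well plates and compounds tested at five concentrations. Here, GI50 denotes the concentration required for 50% inhibition of growth.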 Active and inactive are the calls of the source. Cut-off read from the data, not from the text of the source: active = GI50 up to about 1.1 µM and inactive = higher.

Columns and labels:
Assay in all cases: NCI anticancer screen, dose series, 48 h
K562 = test system: K562
HCT-116 = test system: HCT-116
COLO 205 = test system: COLO 205
SF-268 = test system: SF-268
TK-10 = test system: TK-10
IGROV-1 = test system: IGROV-1
OVCAR-3 = test system: OVCAR-3
EKVX = test system: EKVX
MCF7 = test system: MCF7
T47D = test system: T47D
M14 = test system: M14
CCRF-CEM = test system: CCRF-CEM
RPMI-8226 = test system: RPMI-8226
PC-3 = test system: PC-3
NCI-H23 = test system: NCI-H23
MDA-MB-435 = test system: MDA-MB-435
ACHN = test system: ACHN
HOP-62 = test system: HOP-62
A549 = test system: A549
SF-295 = test system: SF-295
RXF 393 = test system: RXF 393
KM12 = test system: KM12
SN12C = test system: SN12C
SK-OV-3 = test system: SK-OV-3
U-251 = test system: U-251
Hs-578T = test system: Hs-578T
UO-31 = test system: UO-31
UACC-257 = test system: UACC-257
SNB-75 = test system: SNB-75
CAKI-1 = test system: CAKI-1
DU-145 = test system: DU-145
SK-MEL-28 = test system: SK-MEL-28
SW-620 = test system: SW-620
SNB-19 = test system: SNB-19
OVCAR-5 = test system: OVCAR-5
SR = test system: SR
SK-MEL-2 = test system: SK-MEL-2
HL-60 = test system: HL-60
NCI-H522 = test system: NCI-H522
MDA-MB-231 = test system: MDA-MB-231
MDA-N = test system: MDA-N
HT-29 = test system: HT-29
LOX IMVI = test system: LOX IMVI
HCC 2998 = test system: HCC 2998
HCT-15 = test system: HCT-15
SK-MEL-5 = test system: SK-MEL-5
BT-549 = test system: BT-549
NCI/ADR-RES = test system: NCI/ADR-RES
NCI-H226 = test system: NCI-H226
NCI-H460 = test system: NCI-H460
OVCAR-4 = test system: OVCAR-4
OVCAR-8 = test system: OVCAR-8
MOLT-4 = test system: MOLT-4
UACC-62 = test system: UACC-62
786-0 = test system: 786-0
A498 = test system: A498
Malme-3M = test system: Malme-3M
SF-539 = test system: SF-539

In the case of `COc1ccccc1C(=O)NO`, the GI50 (K562) is reported as > 100 µM (inactive), the GI50 (HCT-116) is reported as > 100 µM (inactive) and the GI50 (COLO 205) is reported as > 100 µM (inactive). For the same molecule, the GI50 (SF-268) was > 100 µM (inactive), the GI50 (TK-10) was > 100 µM (inactive) and the GI50 (IGROV-1) was > 100 µM (inactive). For the same molecule, the GI50 (OVCAR-3) was > 100 µM (inactive), the GI50 (EKVX) was > 100 µM (inactive) and the GI50 (MCF7) was > 100 µM (inactive). For the same molecule, the GI50 (T47D) was > 100 µM (inactive), the GI50 (M14) was > 100 µM (inactive) and the GI50 (CCRF-CEM) was > 100 µM (inactive). For the same molecule, the GI50 (RPMI-8226) was > 100 µM (inactive), the GI50 (PC-3) was > 100 µM (inactive) and the GI50 (NCI-H23) was > 100 µM (inactive). For the same molecule, the GI50 (MDA-MB-435) was > 100 µM (inactive), the GI50 (ACHN) was > 100 µM (inactive) and the GI50 (HOP-62) was > 100 µM (inactive). For the same molecule, the GI50 (A549) was > 100 µM (inactive), the GI50 (SF-295) was > 100 µM (inactive) and the GI50 (RXF 393) was > 100 µM (inactive). The GI50 (KM12) was 39.5 µM (inactive), the GI50 (SN12C) was > 100 µM (inactive) and the GI50 (SK-OV-3) was > 100 µM (inactive). For the same molecule, the GI50 (U-251) was > 100 µM (inactive), the GI50 (Hs-578T) was > 100 µM (inactive) and the GI50 (UO-31) was > 100 µM (inactive). For the same molecule, the GI50 (UACC-257) was > 100 µM (inactive), the GI50 (SNB-75) was > 100 µM (inactive) and the GI50 (CAKI-1) was > 100 µM (inactive). The GI50 (DU-145) was > 100 µM (inactive), the GI50 (SK-MEL-28) was > 100 µM (inactive) and the GI50 (SW-620) was > 100 µM (inactive). The GI50 (SNB-19) was > 100 µM (inactive), the GI50 (OVCAR-5) was > 100 µM (inactive) and the GI50 (SR) was > 100 µM (inactive). The GI50 (SK-MEL-2) was > 100 µM (inactive), the GI50 (HL-60) was > 100 µM (inactive) and the GI50 (NCI-H522) was 49.1 µM (inactive). For the same molecule, the GI50 (MDA-MB-231) was > 100 µM (inactive), the GI50 (MDA-N) was > 100 µM (inactive) and the GI50 (HT-29) was > 100 µM (inactive). The GI50 (LOX IMVI) was > 100 µM (inactive), the GI50 (HCC 2998) was > 100 µM (inactive) and the GI50 (HCT-15) was > 100 µM. For the same molecule, the GI50 (SK-MEL-5) was > 100 µM (inactive), the GI50 (BT-549) was > 100 µM (inactive) and the GI50 (NCI/ADR-RES) was > 100 µM (inactive). The GI50 (NCI-H226) was > 100 µM (inactive), the GI50 (NCI-H460) was 62.7 µM (inactive) and the GI50 (OVCAR-4) was > 100 µM (inactive). For the same molecule, the GI50 (OVCAR-8) was > 100 µM (inactive), the GI50 (MOLT-4) was > 100 µM (inactive) and the GI50 (UACC-62) was > 100 µM (inactive). For the same molecule, the GI50 (786-0) was > 100 µM (inactive).

With `CN(CCN1CCCC1)C1CCc2cc(Cl)c(Cl)cc2C1` (stereo unspecified) the GI50 (K562) was 21.8 µM (inactive), the GI50 (HCT-116) was 12.5 µM (inactive) and the GI50 (COLO 205) was 3.6 µM (inactive). The GI50 (SF-268) was 17.1 µM (inactive), the GI50 (TK-10) was 17.1 µM (inactive) and the GI50 (IGROV-1) was 15.6 µM (inactive). The GI50 (OVCAR-3) was 17.1 µM (inactive), the GI50 (EKVX) was 20.6 µM (inactive) and the GI50 (MCF7) was 14.8 µM (inactive). For the same molecule, the GI50 (T47D) was 6.37 µM (inactive), the GI50 (M14) was 15 µM (inactive) and the GI50 (CCRF-CEM) was 26.4 µM (inactive). The GI50 (RPMI-8226) was 17.2 µM (inactive), the GI50 (PC-3) was 20 µM (inactive) and the GI50 (NCI-H23) was 15 µM (inactive). For the same molecule, the GI50 (MDA-MB-435) was 14.4 µM (inactive), the GI50 (ACHN) was 16.9 µM (inactive) and the GI50 (HOP-62) was 17.4 µM (inactive). For the same molecule, the GI50 (A549) was 16.6 µM (inactive), the GI50 (SF-295) was 15.7 µM (inactive) and the GI50 (KM12) was 20.3 µM (inactive). The GI50 (SN12C) was 15.5 µM (inactive), the GI50 (A498) was 13.2 µM (inactive) and the GI50 (SK-OV-3) was 17.5 µM (inactive). The GI50 (U-251) was 16.1 µM (inactive), the GI50 (Hs-578T) was 29.9 µM (inactive) and the GI50 (UO-31) was 13.2 µM (inactive). The GI50 (UACC-257) was 16.4 µM (inactive), the GI50 (CAKI-1) was 17.3 µM (inactive) and the GI50 (DU-145) was 13.2 µM (inactive). The GI50 (SK-MEL-28) was 18.5 µM (inactive), the GI50 (SW-620) was 23.9 µM (inactive) and the GI50 (SNB-19) was 19.7 µM (inactive). For the same molecule, the GI50 (OVCAR-5) was 15.3 µM (inactive), the GI50 (SR) was 20.5 µM (inactive) and the GI50 (SK-MEL-2) was 17.9 µM (inactive). The GI50 (HL-60) was 12.6 µM (inactive), the GI50 (NCI-H522) was 17.2 µM (inactive) and the GI50 (MDA-MB-231) was 17.6 µM (inactive). The GI50 (MDA-N) was 9.2 µM (inactive), the GI50 (HT-29) was 10.4 µM (inactive) and the GI50 (LOX IMVI) was 15.1 µM (inactive). The GI50 (HCC 2998) was 5.47 µM (inactive), the GI50 (HCT-15) was 13.2 µM and the GI50 (SK-MEL-5) was 11.1 µM (inactive). For the same molecule, the GI50 (BT-549) was 14.9 µM (inactive), the GI50 (NCI/ADR-RES) was 12.4 µM (inactive) and the GI50 (NCI-H226) was 16.2 µM (inactive). For the same molecule, the GI50 (NCI-H460) was 16.6 µM (inactive), the GI50 (OVCAR-4) was 21.4 µM (inactive) and the GI50 (Malme-3M) was 18.9 µM (inactive). For the same molecule, the GI50 (SF-539) was 16.1 µM (inactive), the GI50 (OVCAR-8) was 16.2 µM (inactive) and the GI50 (MOLT-4) was 24.8 µM (inactive). The GI50 (UACC-62) was 5.71 µM (inactive) and the GI50 (786-0) was 14.7 µM (inactive).
